Test results taken from patent US8134015B2, “Compound inhibiting in vivo phosphorous transport and medicine containing the same” (Kyowa Hakko Kirin Co., Ltd., priority 2003, dated 2012).

Molecular target: T1, rat NaPi-2b (Rattus norvegicus, UniProt Q9JJ09)
T1 construct: expressed in transfected cells; host or cells: Xenopus oocytes injected with cRNA
T1 sequence (Q9JJ09 1-695): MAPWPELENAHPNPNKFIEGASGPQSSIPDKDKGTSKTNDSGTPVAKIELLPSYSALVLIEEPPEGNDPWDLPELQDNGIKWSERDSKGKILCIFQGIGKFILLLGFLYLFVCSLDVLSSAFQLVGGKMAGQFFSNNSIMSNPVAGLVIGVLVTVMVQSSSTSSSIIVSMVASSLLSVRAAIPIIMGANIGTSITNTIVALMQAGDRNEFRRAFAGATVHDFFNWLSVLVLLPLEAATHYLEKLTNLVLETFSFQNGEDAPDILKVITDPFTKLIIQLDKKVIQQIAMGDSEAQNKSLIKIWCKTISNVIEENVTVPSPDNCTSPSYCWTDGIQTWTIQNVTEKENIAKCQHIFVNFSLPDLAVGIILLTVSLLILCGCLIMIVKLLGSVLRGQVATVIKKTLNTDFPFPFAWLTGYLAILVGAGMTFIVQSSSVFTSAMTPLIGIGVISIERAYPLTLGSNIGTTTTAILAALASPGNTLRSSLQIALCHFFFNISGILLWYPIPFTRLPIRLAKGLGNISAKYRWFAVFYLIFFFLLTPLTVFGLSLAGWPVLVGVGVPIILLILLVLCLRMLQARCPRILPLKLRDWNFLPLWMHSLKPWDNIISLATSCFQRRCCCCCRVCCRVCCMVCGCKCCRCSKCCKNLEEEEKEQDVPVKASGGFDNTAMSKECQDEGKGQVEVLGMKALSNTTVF
Test: Sodium-dependent phosphate uptake of Xenopus oocytes which expressed NaPi-2b (32P)
Type: cell-based
Conditions: Xenopus oocytes expressing rat NaPi-2b, 32P radioactive phosphorus; read-out: IC50 (phosphate uptake inhibitory activity)
Procedure, shortened: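 Inhibition at 300 μM and 100 μM was read off one inhibition curve of 32P phosphate uptake. Uptake was measured in Xenopus oocytes cultured 2 days after injection of cRNA for cloned rat NaPi-2b.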

SMILES	IC50 [µM]
O=C(Nc1cscc1C(=O)N/N=C/c1cccc(F)c1)c1cccc(CN2CCN(CCO)CC2)c1 [Compound 980, N-[4-(3-Fluoro-benzylidene-hydrazinocarbonyl)-thiophen-3-yl]-3-[4-(2-hydroxy-ethyl)-piperazin-1-ylmethyl]-benzamide]	13.8
Cc1ccc(/C=N/NC(=O)c2cscc2NC(=O)c2cccc(CN3CCN(CCO)CC3)c2)cc1 [Compound 981, 3-[4-(2-Hydroxy-ethyl)-piperazin-1-ylmethyl]-N-[4-(4-methyl-benzylidene-hydrazinocarbonyl)-thiophen-3-yl]-benzamide]	12.2
Cc1ccc(/C=N/NC(=O)c2cscc2NC(=O)c2cccc(CN3CCN(CCO)CC3)c2)cc1C [Compound 982, N-[4-(3,4-Dimethyl-benzylidene-hydrazinocarbonyl)-thiophen-3-yl]-3-[4-(2-hydroxy-ethyl)-piperazin-1-ylmethyl]-benzamide]	8.05
O=C(Nc1cscc1C(=O)N/N=C/c1ccc(Cl)c(C(F)(F)F)c1)c1cccc(CN2CCN(CCO)CC2)c1 [Compound 983, N-[4-(4-Chloro-3-trifluoromethyl-benzylidene-hydrazinocarbonyl)-thiophen-3-yl]-3-[4-(2-hydroxy-ethyl)-piperazin-1-ylmethyl]-benzamide]	8.31
COc1ccc(/C=N/NC(=O)c2cscc2NC(=O)c2cccc(CN3CCN(CCO)CC3)c2)cc1 [Compound 984, 3-[4-(2-Hydroxy-ethyl)-piperazin-1-ylmethyl]-N-[4-(4-methoxy-benzylidene-hydrazinocarbonyl)-thiophen-3-yl]-benzamide]	22.1
Cc1ccc(/C=N/NC(=O)c2cc(F)ccc2NC(=O)c2cc(F)ccc2NC(=O)c2cccc(CN(CC(C)O)CC(C)O)c2)cc1C (centres unmarked) [Compound 986, 2-(3-{[Bis-(2-hydroxy-propyl)-amino]-methyl}-benzoylamino)-N-[2-(3,4-dimethyl-benzylidene-hydrazinocarbonyl)-4-fluoro-phenyl]-5-fluoro-benzamide]	29
CC(O)CN(Cc1cccc(C(=O)Nc2ccc(F)cc2C(=O)Nc2ccc(F)cc2C(=O)N/N=C/c2cccc(F)c2)c1)CC(C)O (centres unmarked) [Compound 988, 2-(3-{[Bis-(2-hydroxy-propyl)-amino]-methyl}-benzoylamino)-5-fluoro-N-[4-fluoro-2-(3-fluoro-benzylidene-hydrazinocarbonyl)-phenyl]-benzamide]	3.88
C/C(=N\NC(=O)c1cc(Br)ccc1NC(=O)c1cccc(CN(CC(C)O)CC(C)O)c1)c1cccc(F)c1 (centres unmarked) [Compound 996, 3-{[Bis-(2-hydroxy-propyl)-amino]-methyl}-N-{4-bromo-2-[1-(3-fluoro-phenyl)-ethylidene-hydrazinocarbonyl]-phenyl}-benzamide]	2.66
COc1ccc(/C(C)=N/NC(=O)c2cc(Br)ccc2NC(=O)c2cccc(CN(CC(C)O)CC(C)O)c2)cc1 (centres unmarked) [Compound 997, 3-{[Bis-(2-hydroxy-propyl)-amino]-methyl}-N-{4-bromo-2-[1-(4-methoxy-phenyl)-ethylidene-hydrazinocarbonyl]-phenyl}-benzamide]	7.88
CC(O)CN(Cc1cccc(C(=O)Nc2ccc(Cl)cc2C(=O)N/N=C/c2ccc(OCCCN(C)C)cc2)c1)CC(C)O (centres unmarked) [Compound 998, 3-{[Bis-(2-hydroxy-propyl)-amino]-methyl}-N-{4-chloro-2-[4-(3-dimethylamino-propoxy)-benzylidene-hydrazinocarbonyl]-phenyl}-benzamide]	16.6
CCN(CC)CCN(C)Cc1cccc(C(=O)Nc2ccc(Cl)cc2C(=O)N/N=C/c2ccc(OCCCN(C)C)cc2)c1 [Compound 999, N-{4-Chloro-2-[4-(3-dimethylamino-propoxy)-benzylidene-hydrazinocarbonyl]-phenyl}-3-{[(2-diethylamino-ethyl)-methyl-amino]-methyl}-benzamide]	58.2
CCN(CC)CCN(C)Cc1cccc(C(=O)Nc2sc3c(c2C(=O)N/N=C/c2ccc(OC(F)(F)F)cc2)CCCC3)c1 [Compound 1001, 3-{[(2-Diethylamino-ethyl)-methyl-amino]-methyl}-N-[3-(4-trifluoromethoxy-benzylidene-hydrazinocarbonyl)-4,5,6,7-tetrahydro-benzo[b]thiophen-2-yl]-benzamide]	< 3
CCN(CC)CCN(C)Cc1cccc(C(=O)Nc2sc3c(c2C(=O)N/N=C/c2ccc(OCCO)cc2)CCCC3)c1 [Compound 1002, 3-{[(2-Diethylamino-ethyl)-methyl-amino]-methyl}-N-{3-[4-(2-hydroxy-ethoxy)-benzylidene-hydrazinocarbonyl]-4,5,6,7-tetrahydro-benzo[b]thiophen-2-yl}-benzamide]	2.58
CCN(CC)CCN(C)Cc1cccc(C(=O)Nc2sc3c(c2C(=O)N/N=C(\C)c2cccc(F)c2)CCCC3)c1 [Compound 1003, 3-{[(2-Diethylamino-ethyl)-methyl-amino]-methyl}-N-{3-[1-(3-fluoro-phenyl)-ethylidene-hydrazinocarbonyl]-4,5,6,7-tetrahydro-benzo[b]thiophen-2-yl}-benzamide]	9.12
O=C(Nc1ccc(Cl)cc1C(=O)N/N=C/c1ccc(Cl)c(C(F)(F)F)c1)c1cnc2ccccc2n1 [Compound 1006, Quinoxaline-2-carboxylic acid[4-chloro-2-(4-chloro-3-trifluoromethyl-benzylidene-hydrazinocarbonyl)-phenyl]-amide]	6.31
O=C(Nc1ccc(Cl)cc1C(=O)N/N=C/c1cccc(F)c1)c1cccc(CSCC(O)CO)c1 (centres unmarked) [Compound 1007, N-[4-Chloro-2-(3-fluoro-benzylidene-hydrazinocarbonyl)-phenyl]-3-(2,3-dihydroxy-propylsulfanylmethyl)-benzamide]	0.4
O=C(Nc1ccc(Cl)cc1C(=O)N/N=C/c1ccc(Cl)c(C(F)(F)F)c1)c1cccc(CSCC(O)CO)c1 (centres unmarked) [Compound 1010, N-[4-Chloro-2-(4-chloro-3-trifluoromethyl-benzylidene-hydrazinocarbonyl)-phenyl]-3-(2,3-dihydroxy-propylsulfanylmethyl)-benzamide]	0.24

Same assay, conditions: phosphate uptake, oocytes expressing rat NaPi-2b; 300 μM, determined from inhibition curve

SMILES	inhibition at 300 µM [%]
CC(O)CN(Cc1cccc(C(=O)Nc2cscc2C(=O)N/N=C/c2ccc(Cl)c(C(F)(F)F)c2)c1)CC(C)O (centres unmarked) [Compound 978, 3-{[Bis-(2-hydroxy-propyl)-amino]-methyl}-N-[4-(4-chloro-3-trifluoromethyl-benzylidene-hydrazinocarbonyl)-thiophen-3-yl]-benzamide]	74.1
COc1ccc(/C=N/NC(=O)c2cscc2NC(=O)c2cccc(CN(CC(C)O)CC(C)O)c2)cc1 (centres unmarked) [Compound 979, 3-{[Bis-(2-hydroxy-propyl)-amino]-methyl}-N-[4-(4-methoxy-benzylidene-hydrazinocarbonyl)-thiophen-3-yl]-benzamide]	73.7
Cc1ccc(/C=N/NC(=O)c2sc(C(C)(C)C)cc2NC(=O)c2cccc(CN3CCN(CCO)CC3)c2)cc1C [Compound 991, N-[5-Tert-butyl-2-(3,4-dimethyl-benzylidene-hydrazinocarbonyl)-thiophen-3-yl]-3-[4-(2-hydroxy-ethyl)-piperazin-1-ylmethyl]-benzamide]	30.1
CC(O)CN(Cc1cccc(C(=O)Nc2ccsc2C(=O)N/N=C/c2cccc(F)c2)c1)CC(C)O (centres unmarked) [Compound 992, 3-{[Bis-(2-hydroxy-propyl)-amino]-methyl}-N-[2-(3-fluoro-benzylidene-hydrazinocarbonyl)-thiophen-3-yl]-benzamide]	31.9
CC(O)CN(Cc1cccc(C(=O)Nc2ccsc2C(=O)N/N=C/c2ccc(Cl)c(C(F)(F)F)c2)c1)CC(C)O (centres unmarked) [Compound 993, 3-{[Bis-(2-hydroxy-propyl)-amino]-methyl}-N-[2-(4-chloro-3-trifluoromethyl-benzylidene-hydrazinocarbonyl)-thiophen-3-yl]-benzamide]	39.7
CCN(CC)Cc1cccc(C(=O)Nc2ccsc2C(=O)N/N=C/c2cccc(F)c2)c1 [Compound 995, 3-Diethylaminomethyl-N-[2-(3-fluoro-benzylidene-hydrazinocarbonyl)-thiophen-3-yl]-benzamide]	42.1
CCN(CC)CCN(C)Cc1cccc(C(=O)Nc2ccc(Cl)cc2C(=O)N/N=C/c2ccc(OCC(=O)O)cc2)c1 [Compound 1000, (4-{[5-Chloro-2-(3-{[(2-diethylamino-ethyl)-methyl-amino]-methyl}-benzoylamino)-benzoyl]-hydrazinomethyl}-phenoxy)-acetic acid]	32.1
O=C(Nc1ccc(Cl)cc1C(=O)N/N=C/c1cccc(F)c1)c1cnc2ccccc2n1 [Compound 1004, Quinoxaline-2-carboxylic acid [4-chloro-2-(3-fluoro-benzylidene-hydrazinocarbonyl)-phenyl]-amide]	34.2
Cc1ccc(/C=N/NC(=O)c2cc(Cl)ccc2NC(=O)c2cnc3ccccc3n2)cc1C [Compound 1005, Quinoxaline-2-carboxylic acid [4-chloro-2-(3,4-dimethyl-benzylidene-hydrazinocarbonyl)-phenyl]-amide]	59.1
